{"source": "patent US11845984B2", "about": "“Methods for obtaining and correcting biological sequence information” (CYGNUS BIOSCIENCES (BEIJING) CO., LTD., priority 2015, dated 2023)", "test": "Spectral (optical) properties of fluorophores", "type": "physicochemical", "protocol": "Although Me-FAM has similar maximum emission wavelength as TG, the extinction coefficient and quantum yield of Me-FAM are much lower (FIG. 8). At the same time, the broad emission spectrum of Me-FAM greatly overlapped with other fluorophores like Me-HCF, which makes it inapplicable for multi-color sequencing application in future. Instead, the strong fluorescence and narrower spectrum of TG will tackle the problem more easily.\nFirst, the spectrums of TG-dA4P were measured at room temperature. For emission measurement: set excitation wavelength at 460 nm, scan 480 to 600 nm for emission; for absorption measurement: scan 310 to 550 nm. Then CIP and PDE were added and spectrum was recorded sequentially at the same condition.", "data": [{"molecule": "Cc1ccccc1-c1c2ccc(=O)cc-2oc2cc(O)ccc12", "note": "[TG, Tokyo Green]", "values": [{"measurement": "Emission max", "value": 513, "unit": "nm"}, {"measurement": "Excitation max", "value": 490, "unit": "nm"}, {"measurement": "Extinction coefficient", "value": "8 × 10^4"}, {"measurement": "Quantum Yield", "value": 82, "unit": "%"}, {"measurement": "fluorescence quantum yield", "setting": "at 490 nm", "value": 0.82}]}]}
